The values that follow come from patent US20230147962A1, “FIBROBLAST ACTIVATION PROTEIN LIGANDS FOR TARGETED DELIVERY APPLICATIONS” (PHILOCHEM AG, priority 2020, published 2023).

*1 amine or outer side, *2 acyl side, *3 side chain or, on linkers, in order; H or OH if unused. Where a SMILES comes first, the peptide text is derived from it. The star is where a group is joined. Fluorescein(5-Mal) = O=C1OC2(c3ccc(O)cc3Oc3cc(O)ccc32)c2ccc(N3C(=O)CC(*)C3=O)cc21; X1 = N#C[C@@H]1CC(F)(F)CN1C(=O)CNC(=O)c1ccnc2c(N*)cccc12; Suc = O=C(CCC(=O)[*:2])[*:1]

A word on the Kd: it is the concentration at which binding is half-saturated.

In one experiment the target is T1, murine FAP (Mus musculus, UniProt P97321).
T1 sequence (P97321 1-761): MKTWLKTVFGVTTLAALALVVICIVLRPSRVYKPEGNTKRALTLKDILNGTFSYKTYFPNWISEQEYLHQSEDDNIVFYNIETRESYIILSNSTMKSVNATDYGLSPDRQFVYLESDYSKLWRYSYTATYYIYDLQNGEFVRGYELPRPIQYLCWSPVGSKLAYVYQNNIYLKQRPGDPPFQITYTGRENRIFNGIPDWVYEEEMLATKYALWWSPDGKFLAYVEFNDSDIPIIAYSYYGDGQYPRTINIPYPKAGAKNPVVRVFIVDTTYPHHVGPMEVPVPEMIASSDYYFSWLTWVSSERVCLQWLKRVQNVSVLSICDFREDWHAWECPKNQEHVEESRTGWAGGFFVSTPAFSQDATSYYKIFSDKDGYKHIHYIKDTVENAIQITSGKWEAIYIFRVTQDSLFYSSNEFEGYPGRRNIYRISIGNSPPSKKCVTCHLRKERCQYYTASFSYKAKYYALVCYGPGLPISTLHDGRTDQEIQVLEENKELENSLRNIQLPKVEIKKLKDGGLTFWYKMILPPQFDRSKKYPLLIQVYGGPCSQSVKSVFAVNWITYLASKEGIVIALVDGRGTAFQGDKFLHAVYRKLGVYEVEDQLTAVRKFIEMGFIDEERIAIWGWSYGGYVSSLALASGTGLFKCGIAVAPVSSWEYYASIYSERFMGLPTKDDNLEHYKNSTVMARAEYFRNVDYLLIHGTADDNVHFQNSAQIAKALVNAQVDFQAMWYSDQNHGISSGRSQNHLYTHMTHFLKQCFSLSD
In words: Affinity measurement to murine FAP by fluorescence polarization. The experiment is classed as binding. As to conditions: binder 10 nM, read-out: KD to mFAP. Here is the method:
(§1) Fluorescence polarization experiments were performed in 384-well plates (non-binding, ps, f-bottom, black, high volume, 30 μL final volume). Stock solutions of human FAP (4 μM) and murine FAP (5 μM) were serially diluted with buffer (50 mM Tris, 100 mM NaCl, 1 mM EDTA, pH=7.4), while the final concentration of the binders was kept constant at 10 nM. The fluorescence anisotropy was measured on a TECAN microtiter plate reader. Experiments were performed in triplicate and the mean anisotropy values fitted using Prism 7.

Experiment [1] has as its target T2, hFAP (Homo sapiens, UniProt Q12884).
T2 construct: made in house; host or cells: CHO cells, transient gene expression, purified from supernatant
T2 sequence (Q12884 with tags, fused parts or gaps): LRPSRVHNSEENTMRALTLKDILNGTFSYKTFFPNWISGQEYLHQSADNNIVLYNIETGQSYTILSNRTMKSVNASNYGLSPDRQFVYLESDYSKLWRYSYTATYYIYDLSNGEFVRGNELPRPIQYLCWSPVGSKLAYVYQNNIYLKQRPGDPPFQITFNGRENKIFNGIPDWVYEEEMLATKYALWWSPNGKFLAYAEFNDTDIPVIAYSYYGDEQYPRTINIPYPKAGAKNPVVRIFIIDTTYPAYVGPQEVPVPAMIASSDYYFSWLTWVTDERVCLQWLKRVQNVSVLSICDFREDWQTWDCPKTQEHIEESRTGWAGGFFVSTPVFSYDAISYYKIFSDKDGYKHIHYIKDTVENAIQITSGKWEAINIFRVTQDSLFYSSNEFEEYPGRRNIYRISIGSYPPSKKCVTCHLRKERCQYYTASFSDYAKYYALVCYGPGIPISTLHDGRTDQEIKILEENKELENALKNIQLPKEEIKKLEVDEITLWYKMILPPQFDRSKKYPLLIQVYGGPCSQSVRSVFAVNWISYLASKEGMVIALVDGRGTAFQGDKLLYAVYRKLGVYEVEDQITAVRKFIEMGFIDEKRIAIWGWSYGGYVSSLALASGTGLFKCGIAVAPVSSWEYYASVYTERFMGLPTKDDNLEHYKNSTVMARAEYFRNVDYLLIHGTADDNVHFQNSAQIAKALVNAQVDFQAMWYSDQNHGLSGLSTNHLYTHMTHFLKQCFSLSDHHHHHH
In words: Affinity measurement to human FAP by fluorescence polarization. The experiment is classed as binding. The following applies: binder 10 nM, read-out: KD to hFAP. The procedure:
Fluorescence polarization measurements were performed in 384-well plates (non-binding, ps, f-bottom, black, high volume, 30 μL final volume). A stock solution of human FAP (4 μM) was serially diluted with buffer (50 mM Tris, 100 mM NaCl, 1 mM EDTA, pH=7.4), while the final concentration of the binders was kept constant at 10 nM. The measurements were carried out after incubating for 30 min at 37° C. in the dark by fluorescent polarization (FIG. 4).
as §1

A further experiment deals with HT-1080 Wild type. The experiment in a line: Confocal microscopy on HT-1080 wild type. As to conditions: negative control cells. The experiment is classed as cell-based. Here is the method: (§2) HT-1080.hFAP and HT-1080 cells were seeded into 4-well cover slip chamber plates at a density of 10^4 cells per well in DMEM medium (1 mL) supplemented with 10% FCS, AA and HEPES (10 mM) and allowed to grow for 24 hours under standard culture conditions. Hoechst 33342 nuclear dye was used to stain nuclear structures.
(§3) The culture medium was replaced with fresh medium containing conjugate 15 (100 nM). Randomly selected colonies imaged on a SP8 confocal microscope equipped with an AOBS device (Leica Microsystems).

Experiment [2] deals with T2, hFAP. The experiment in a line: Chromatographic co-elution (PD-10) of ligand-protein complexes, hFAP. In kind it is binding. As to conditions: PD-10 column, hFAP 2 μM. Here is the method:
A PD-10 column was pre-equilibrated with assay buffer (50 mM Tris, 100 mM NaCl, 1 mM EDTA, pH=7.4) prior to the loading of the complex. Human FAP (2 μM) and fluorescein-labeled binders (6 μM) were incubated for 30 min at 37° C. in the dark. The mixture was loaded and the column was flushed using the assay buffer. The flow through was collected in 96-well plates and the fluorescence was measured immediately on a TECAN microtiter plate reader, monitoring the fluorescence at an excitation wavelength of 485 nm and an emission wavelength of 535 nm. The protein quantities were estimated by measuring the absorbance at 280 nm using a Nanodrop 2000/2000c spectrophotometer.
A PD-10 column was pre-equilibrated with assay buffer (50 mM Tris, 100 mM NaCl, 1 mM EDTA, pH=7.4) prior to the loading of the complex. A mixture of different proteins (hFAP=2 μM, mFAP=5 μM) and conjugate 15 (100 nM) were incubated and loaded on the column. The mixture was flushed using the assay buffer. The flow through was collected in 96-well plates and the fluorescence intensity was measured immediately on a TECAN microtiter plate reader, monitoring the fluorescence at an excitation wavelength of 485 nm and an emission wavelength of 535 nm. The concentration of the proteins was estimated by measuring the absorbance at 280 nm using a Nanodrop 2000/2000c spectrophotometer.

For the next experiment, the system named is HT-1080.hFAP. In words: Confocal microscopy on HT-1080.hFAP. In kind it is cell-based. The following applies: t=0 and 1 h. Here is the method: as §2, §3

For `N#C[C@@H]1CC(F)(F)CN1C(=O)CNC(=O)c1ccnc2c(NC(=O)CCC(=O)N[C@@H](CC(=O)O)C(=O)N[C@@H](CCCCN)C(=O)N[C@@H](CC(=O)O)C(=O)N[C@@H](CSC3CC(=O)N(c4ccc5c(c4)C(=O)OC54c5ccc(O)cc5Oc5cc(O)ccc54)C3=O)C(=O)O)cccc12` (stereo partly drawn) [Conjugate 15, (2R,5S,8S,11S)-8-(4-aminobutyl)-5,11-bis(carboxymethyl)-16-((4-((2-((S)-2-cyano-4,4-difluoropyrrolidin-1-yl)-2-oxoethyl)carbamoyl)quinolin-8-yl)amino)-2-(((1-(3′,6′-dihydroxy-3-oxo-3H-spiro[isobenzofuran-1,9′-xanthen]-5-yl)-2,5-dioxopyrrolidin-3-yl)thio)methyl)-4,7,10,13,16-pentaoxo-3,6,9,12-tetraazahexadecanoic acid] ({X1-Suc}-DKDC(Fluorescein(5-Mal))-OH), the Kd on murine FAP stood at 11.6 nM; on hFAP [1], 0.68 nM. For the same compound, the “accumulation on HT-1080 Wild type cells” value with HT-1080 Wild type is “no accumulation on the cell membrane and in the cytosol”. The “complex formation with hFAP in PD-10 co-elution” value on hFAP [2] was “stable complex is formed”. Also, in the experiment with HT-1080.hFAP, the “accumulation on HT-1080.hFAP cells” value was “accumulation of conjugate 15 on the cell membrane and inside the cytosol”.
